Measurements published in PubChem BioAssay AID248 (DTP/NCI, 2004).
Where “and” joins values, the source holds several entries; their conditions need not be identical. Identical values can stand only once. Inconclusive results and toxic doses are left out. Cut-off read from the data, not from the text of the source: active = T/C of 150% or more; inactive = T/C below 125%.

Test system: L1210 leukemia ip in BDF1 mice, survival T/C
Experiment: NCI In Vivo Anticancer Drug Screen. Data for tumor model L1210 Leukemia (intraperitoneal) in B6D2F1 (BDF1) mice
Conditions: endpoint: mean survival time, higher = longer survival
Procedure, shortened: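 Transplanted-tumor mice were given test agent; controls received vehicle only. Survival readings from the two groups were divided (treated over control).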

[1] = dose: 100.0 mg/kg/injection, schedule: Q01DX009 (ip), vehicle: Klucel (hydroxypropylcellulose) (HPC)
[2] = dose: 200.0 mg/kg/injection, schedule: Q01DX009 (ip), vehicle: Klucel (hydroxypropylcellulose) (HPC)
[3] = dose: 400.0 mg/kg/injection, schedule: Q01DX009 (ip), vehicle: Klucel (hydroxypropylcellulose) (HPC)
[4] = dose: 100.0 mg/kg/injection, schedule: Q04DX002 (ip), vehicle: saline with Tween-80
[5] = dose: 200.0 mg/kg/injection, schedule: Q04DX002 (ip), vehicle: saline with Tween-80
[6] = dose: 400.0 mg/kg/injection, schedule: Q04DX002 (ip), vehicle: saline with Tween-80
[7] = dose: 100.0 mg/kg/injection, schedule: Q01DX009 (ip), vehicle: saline with Tween-80
[8] = dose: 100.0 mg/kg/injection, schedule: Q04DX003 (ip), vehicle: Klucel (hydroxypropylcellulose) (HPC)
[9] = dose: 200.0 mg/kg/injection, schedule: Q04DX003 (ip), vehicle: Klucel (hydroxypropylcellulose) (HPC)
[10] = dose: 400.0 mg/kg/injection, schedule: Q04DX003 (ip), vehicle: Klucel (hydroxypropylcellulose) (HPC)

Measured: T/C

CC1(C)Cc2cccc(C(O)(CCN3CCCCC3)c3ccccc3)c2O1 (stereo not given)
inactive: dose: 20.0 mg/kg/injection, schedule: Q01DX001 (ip), vehicle: Klucel (hydroxypropylcellulose) (HPC) 96 % of control | dose: 40.0 mg/kg/injection, schedule: Q01DX001 (ip), vehicle: Klucel (hydroxypropylcellulose) (HPC) 98 % of control | dose: 80.0 mg/kg/injection, schedule: Q01DX001 (ip), vehicle: Klucel (hydroxypropylcellulose) (HPC) 92 % of control | dose: 100.0 mg/kg/injection, schedule: Q01DX001 (ip), vehicle: Klucel (hydroxypropylcellulose) (HPC) 91 % of control

O=C(O)/C(=C/c1ccccc1)c1ccc2ccccc2c1Br
inactive: [1] 107 % of control | dose: 100.0 mg/kg/injection, schedule: Q04DX003 (ip), vehicle: other 100 % of control | [2] 95 % of control | dose: 200.0 mg/kg/injection, schedule: Q04DX003 (ip), vehicle: other 100 % of control | [3] 109 % of control | dose: 400.0 mg/kg/injection, schedule: Q04DX003 (ip), vehicle: other 95 % of control

O=C(c1ccc(F)cc1)c1ccc2ccccc2c1C(=O)O
inactive: dose: 100.0 mg/kg/injection, schedule: Q04DX002 (ip), vehicle: Klucel (hydroxypropylcellulose) (HPC) 89 % of control | dose: 200.0 mg/kg/injection, schedule: Q04DX002 (ip), vehicle: Klucel (hydroxypropylcellulose) (HPC) 92 % of control | dose: 400.0 mg/kg/injection, schedule: Q04DX002 (ip), vehicle: Klucel (hydroxypropylcellulose) (HPC) 99 % of control

CCCS(=O)(=O)N(CC)CC
inactive: [4] 97 % of control | [5] 101 % of control | [6] 87 % of control

CCOc1ccc(C(=N)N2CCN(C)CC2)c2ccccc12
inactive: dose: 4.2 mg/kg/injection, schedule: Q01DX Z (ip), vehicle: methylcellulose (MC) 104 % of control | dose: 6.3 mg/kg/injection, schedule: Q01DX Z (ip), vehicle: methylcellulose (MC) 103 % of control | dose: 9.5 mg/kg/injection, schedule: Q01DX Z (ip), vehicle: methylcellulose (MC) 97 % of control | dose: 14.3 mg/kg/injection, schedule: Q01DX Z (ip), vehicle: methylcellulose (MC) 106 % of control

c1n[nH]c2c1CCCC2
inactive: dose: 100.0 mg/kg/injection, schedule: Q01DX001 (ip), vehicle: saline with Tween-80 89 % of control | [7] 98 % of control | [4] 97 % of control and 91 % of control | dose: 100.0 mg/kg/injection, schedule: Q04DX003 (ip), vehicle: saline with Tween-80 96 % of control and 104 % of control | dose: 200.0 mg/kg/injection, schedule: Q01DX001 (ip), vehicle: saline with Tween-80 86 % of control | dose: 200.0 mg/kg/injection, schedule: Q01DX009 (ip), vehicle: saline with Tween-80 98 % of control | [5] 94 % of control and 92 % of control | dose: 200.0 mg/kg/injection, schedule: Q04DX003 (ip), vehicle: saline with Tween-80 98 % of control and 108 % of control | [6] 94 % of control | dose: 400.0 mg/kg/injection, schedule: Q04DX003 (ip), vehicle: saline with Tween-80 100 % of control and 92 % of control

O=C1C=CC(=O)N1CCc1ccccc1
inactive: dose: 3.0 mg/kg/injection, schedule: Q01DX009 (ip), vehicle: Klucel (hydroxypropylcellulose) (HPC) 106 % of control | dose: 5.0 mg/kg/injection, schedule: Q01DX009 (ip), vehicle: saline with Tween-80 91 % of control | dose: 6.0 mg/kg/injection, schedule: Q01DX009 (ip), vehicle: Klucel (hydroxypropylcellulose) (HPC) 95 % of control | dose: 10.0 mg/kg/injection, schedule: Q01DX009 (ip), vehicle: saline with Tween-80 87 % of control | dose: 12.0 mg/kg/injection, schedule: Q01DX009 (ip), vehicle: Klucel (hydroxypropylcellulose) (HPC) 103 % of control | dose: 12.5 mg/kg/injection, schedule: Q01DX009 (ip), vehicle: Klucel (hydroxypropylcellulose) (HPC) 97 % of control | dose: 20.0 mg/kg/injection, schedule: Q01DX009 (ip), vehicle: saline with Tween-80 101 % of control | dose: 20.0 mg/kg/injection, schedule: Q04DX003 (ip), vehicle: saline with Tween-80 95 % of control

CCOC(=O)c1[nH]c2ccsc2c1CN(C)C
inactive: [8] 102 % of control | [9] 91 % of control | [10] 97 % of control

CC(C(N)=O)N1C(=O)C2C3CCC(O3)C2C1=O (stereo not given)
inactive: dose: 100.0 mg/kg/injection, schedule: Q04DX003 (ip), vehicle: saline 97 % of control | dose: 200.0 mg/kg/injection, schedule: Q04DX003 (ip), vehicle: saline 97 % of control | dose: 400.0 mg/kg/injection, schedule: Q04DX003 (ip), vehicle: saline 97 % of control

O=C(Nc1nccs1)Nc1ccc(Cl)cc1[N+](=O)[O-]
inactive: [1] 105 % of control | [2] 100 % of control | [3] 102 % of control

CCCCCCCCCCCCCCCCCC(=O)[O][Sn]([CH2]CCC)([CH2]CCC)[O]C(=O)CCCCCCCCCCCCCCCCC
inactive: dose: 6.25 mg/kg/injection, schedule: Q04DX003 (ip), vehicle: other 100 % of control | dose: 12.5 mg/kg/injection, schedule: Q04DX003 (ip), vehicle: other 114 % of control | dose: 25.0 mg/kg/injection, schedule: Q04DX003 (ip), vehicle: other 101 % of control | dose: 50.0 mg/kg/injection, schedule: Q04DX003 (ip), vehicle: other 101 % of control

CCC[CH2][Sn]([CH2]CCC)([O]C(C)=O)[O]C(C)=O
inactive: dose: 3.0 mg/kg/injection, schedule: Q01DX009 (ip), vehicle: saline 106 % of control | dose: 6.12 mg/kg/injection, schedule: Q01DX009 (ip), vehicle: saline 101 % of control | dose: 12.5 mg/kg/injection, schedule: Q01DX009 (ip), vehicle: saline 108 % of control | dose: 25.0 mg/kg/injection, schedule: Q01DX009 (ip), vehicle: saline 89 % of control

CCSP(N)(=O)c1ccccc1 (stereo not given)
inactive: dose: 75.0 mg/kg/injection, schedule: Q01DX001 (ip), vehicle: saline 101 % of control

CCCCCCCCC/C=N\N=C(N)N
inactive: dose: 15.0 mg/kg/injection, schedule: Q01DX Z (ip), vehicle: carboxymethylcellulose (CMC) 101 % of control | dose: 30.0 mg/kg/injection, schedule: Q01DX Z (ip), vehicle: carboxymethylcellulose (CMC) 108 % of control | dose: 60.0 mg/kg/injection, schedule: Q01DX Z (ip), vehicle: carboxymethylcellulose (CMC) 97 % of control | dose: 120.0 mg/kg/injection, schedule: Q01DX Z (ip), vehicle: carboxymethylcellulose (CMC) 103 % of control and 104 % of control | dose: 120.0 mg/kg/injection, schedule: Q01DX Z (oral), vehicle: carboxymethylcellulose (CMC) 104 % of control | dose: 240.0 mg/kg/injection, schedule: Q01DX Z (ip), vehicle: carboxymethylcellulose (CMC) 100 % of control | dose: 240.0 mg/kg/injection, schedule: Q01DX Z (oral), vehicle: carboxymethylcellulose (CMC) 104 % of control | dose: 480.0 mg/kg/injection, schedule: Q01DX Z (oral), vehicle: carboxymethylcellulose (CMC) 102 % of control | dose: 960.0 mg/kg/injection, schedule: Q01DX Z (oral), vehicle: carboxymethylcellulose (CMC) 104 % of control

BrC1C2C=CC(C2)C1Br (stereo not given)
inactive: [8] 102 % of control | [9] 100 % of control | [10] 92 % of control

O=C(Nc1ccc(Cl)c(Cl)c1)OCC1CC2C=CC1C2 (stereo not given)
inactive: [1] 100 % of control | [2] 97 % of control | [3] 106 % of control

Cc1nc(N(C)C)c2cnn(-c3ccccc3)c2n1
inactive: dose: 50.0 mg/kg/injection, schedule: Q01DX009 (ip), vehicle: saline with Tween-80 106 % of control | dose: 100.0 mg/kg/injection, schedule: Q01DX001 (ip), vehicle: acetone 101 % of control | [7] 87 % of control | dose: 200.0 mg/kg/injection, schedule: Q01DX001 (ip), vehicle: acetone 97 % of control
